Key:
HL-1 cells [1] = experiment: HL-1 cell morphology by light microscopy; format: cell-based, murine; details: FIG. 11, versus control vehicle
Description: In some embodiments, screening assays can be included to determine whether the test compound can alter the structural morphology of the cardiac myocyte in cell culture. HL-1 cells can be incubated in the presence and absence of a test compound to determine whether structural changes can be observed by light microscopy.
HL-1 cells are obtained from Dr. W. C. Claycomb, Louisiana State University Medical Center, New Orleans, La. HL-1 cells (passages 55-75) are maintained at 37° C. under a 5% C02/air atmosphere in Claycomb medium (JRL Bioscience) supplemented with 10% fetal bovine serum, 0.29 mg/mL L-glutamine, 100 units/mL penicillin, 100 μg/mL streptomycin (all Gibco), and 0.1 mM norepinephrine (Sigma). The medium can be replaced approximately every 24 hours. HL-1 cells were grown in T25 culture flasks which were precoated overnight with 2 μg/cm fibronectin/0.02% gelatin solution. HL-1 cells were maintained until they reached confluence at which time the cells were removed by trypsinization and passed into another T25 culture flask coated with gelatin/fibronectin. Cells can be ultimately passed into T75 flasks to increase the number of cells prior to experimentation. Vitamin D experiments are performed in either T75 flasks, or Lab-Tech 2-well slides (for immunohistochemistry), 24 hours after a 1:2 split of confluent cells. […]

HL-1 cells [2] = experiment: Immunofluorescence staining of hypertrophy related proteins in HL-1 cells; format: cell-based, murine; details: FIG. 12
Description: (§1) Immunofluorescent staining of HL-1 cells can be carried out in a method similar to that previously described (Tevosian et al., 1999), except that 0.5% CHAPS (Fisher) can be used instead of Triton X-100. Briefly, HL-1 cells grown on 2-well slides (Lab-Tek) are initially preserved with Sprayfix cytology fixative. To prepare for staining, the slides are washed in EtOH and water, and then briefly washed with PBS. Cells were fixed with cold acetone, rinsed with PBS, and permeabilized by three ten minute washes with 0.5% CHAPS/PBS. Next, the cells are blocked overnight with 5% milk/10% goat serum/PBS. The permeabilization step is then repeated prior to incubation with the primary antibody in 10% goat serum/0.5% CHAPS/PBS with the antibodies and dilutions listed below. After a one-hour incubation with the primary antibodies, the slides are washed three times in the 10% goat serum/0.5% CHAPS/PBS, then three times in 0.5% CHAPS/PBS. Secondary antibodies, as described below, can be incubated for one-hour with 1% BSA/0.5% CHAPS/PBS. After washing with 0.5% CHAPS/PBS the cells are stained for five minutes with 4,6-diamidine-2-phenylidole-dihydrochloride (DAPI Nucleic Acid Stain; Invitrogen) and cover slips are mounted with Prolong Gold anti-fade reagent (Invitrogen). The following antibody combinations can be used: rabbit anti-mouse VDR (sc-1008; Santa Cruz Biotech; 1:100 dilution), rabbit anti-mouse ANP (AB 5490; Chemicon; 1:50 dilution), and rabbit anti-mouse c-myc (sc-764; Santa Cruz Biotech; 1:100 dilution), all followed by FITC conjugated goat anti-rabbit (AP 307F; Chemicon; 1:400). Mouse monoclonal anti-myotrophin (V 11220, BD Transduction Laboratory; 1:50) followed by FITC conjugated goat anti-mouse (F-0257; Sigma; 1:128), and goat anti-mouse calbindin-9 (sc-18038. Santa Cruz Bio; 1:100) followed by FITC conjugated rabbit anti-goat (AP 106F; Chemicon; 1:100). Slides can be analyzed on an Olympus BX 51 immunofluorescence microscope and photomicrographs can be recorded as digital images.
as §1, with “incubation” for “incubation with the primary antibodies,”, “The following antibody combinations can be used: rabbit anti-mouse VDR (sc-1008; Santa Cruz Biotech; 1:100 dilution), rabbit anti-mouse ANP (AB 5490; Chemicon; 1:50 dilution), and rabbit anti-mouse c-myc (sc-764; Santa Cruz Biotech; 1:100 dilution), all followed by FITC conjugated goat anti-rabbit (AP 307F; Chemicon; 1:400). Mouse monoclonal anti-myotrophin (V 11220, BD Transduction Laboratory; 1:50) followed by FITC conjugated goat anti-mouse (F-0257; Sigma; 1:128), and goat anti-mouse calbindin-9 (sc-18038. Santa Cruz Bio; 1:100) followed by FITC conjugated rabbit anti-goat (AP 106F; Chemicon; 1:100).” left out

SMILES: C=C1CC[C@H](O)C/C1=C/C=C1\CCC[C@]2(C)[C@@H]([C@H](C)CCCC(C)C)CC[C@@H]12 [Vitamin D3]
- structural morphology of HL-1 cells (HL-1 cells [1]): growth and presence of structural appendages called dendrites
- expression of ANP (HL-1 cells [2]): inhibited or reduced the expression
- expression of VDR (HL-1 cells [2]): increased the expression
- expression of c-myc (HL-1 cells [2]): inhibited or reduced the expression
- expression of calbindin 9 (HL-1 cells [2]): inhibited or reduced the expression
- expression of myotrophin (HL-1 cells [2]): increased the expression
